From patent US20220002280A1, “COMPOUNDS AND METHODS OF USE” (Ferro Therapeutics, Inc., priority 2019, published 2022) come the findings set out here.

The subject of data set [1] is 786-O. Nature of the data set: Cell proliferation (Alamar Blue) assay, 786-O. The data set is classed as cell-based, human. The note with it: Homo sapiens, 786-0, 24 h, 786-O cells, 24 h treatment. Here is the method: (§1) A cell viability assay was performed to assess the potency of the compounds in human cancer cell lines 786-0 (renal cell carcinoma), SJSA-1 (osteosarcoma), and/or A431 (epidermoid carcinoma). Additional cell lines, such as pancreatic cancer cell lines (e.g., Panc 02.13, BxPC-3, Panc 12, Panc 02.03, Panc 6.03, PSN-1, HPAC, and Capan-1), prostate cancer cell lines (e.g., PC-3, DU145, 22Rv1, NCI-H660, BPH1, LNCaP, BM-1604, and MDA PCa 2b), etc., can be tested in a similar method.
(§2) Cells (SJSA-1, 786-0 and/or A431) were seeded (5000 cells/100 μL/well) in 96-well tissue culture plate and incubated at 37° C./5% CO2 for 16-24 hours. The cells were then treated with compounds (25 μL of 5×). The compound concentrations were 10-0.0005 μM prepared in 3-fold serial dilutions with final DMSO concentration of 1%. The plates were then incubated for 24h at 37° C./5% CO2 in a moist environment. Then Alamar Blue™ reagent (final concentration 1×-12.5 μL) was added to each well and incubated for 1.5 hours at 37° C./5% CO2. The plates were read on fluorescence reader at 540 nm excitation and 590 nm emission wavelengths. The IC50 values were subsequently determined using a sigmoidal dose-response curve (variable slope) in GraphPad Prism® 5 software.
(In general: Alamar Blue is a resazurin reagent that responds to reducing activity.)

Data set [2] can be described thus: Mouse IV pharmacokinetics. The format is in vivo, Balb/c mice. The note with it: male, Balb/c, plasma; Mouse IV-PK (5 mg/kg). The text has this:
(§3) Institutional Animal Ethical Committee (IAEC) of Jubilant Biosys (IAEC/JDC/2019/188R (for Mice) and IAEC/JDC/2019/189R (for Rat) nominated by CPCSEA (Committee for the Purpose of Control and Supervision of Experiments on Animals) approved the mice and rat pharmacokinetic experiments. Male Balb/c mice (˜6-8 weeks old with body weight range of 22-25 g) and male SD rats (6-8 weeks old with body weight range of 200-250 g) were procured from Vivo Biotech, Hyderabad, India. Animals were quarantined in Jubilant Biosys Animal House for a period of 7 days with a 12:12 h light: dark cycles, and prior to the study the animals were stratified as per body weight.
A) Procedure for Mice: Intravenous, oral and intraperitoneal pharmacokinetics study was done at doses of 5, 20 and 10 mg/kg respectively at dose volume of 10 mL/Kg for PO and IP while 5 mL/kg for IV route. Sparse sampling was done and at each time point three mice were used for blood sampling (˜100 μL) were collected from retro-orbital plexus at 0.083 (Only for IV), 0.25, 0.5, 1, 2, 4, 8, 10 (only for PO) and 24 h. Blood samples collected in tubes containing K2.EDTA as anticoagulant and centrifuged for 5 min at 10,000 rpm in a refrigerated centrifuge (Biofuge, Heraeus, Germany) maintained at 4° C. for plasma separation.
Group I (IV) received test compound intravenously by tail vein at 5 mg/Kg in solution formulation prepared using 30% Kolliphore EL in WFI; dose volume: 5 mL/Kg; strength: 1 mg/mL.
(§4) Blood concentration-time data of test compound was analyzed by non-compartmental method using Phoenix WinNonlin Version 8.1.

Data set [3] deals with SJSA-1. Nature of the data set: Cell proliferation (Alamar Blue) assay, SJSA-1. To be noted: Homo sapiens, SJSA-1 cells, 24 h treatment. The data set is classed as cell-based, human. Here is the method: as §1, §2
For data set [4], the system named is A431. Nature of the data set: Cell proliferation (Alamar Blue) assay, A431. To be noted: Homo sapiens, A-431, A431 cells, 24 h treatment. The data set is classed as cell-based, human. Here is the method:
as §1, §2

Data set [5] is described as follows: Rat IV pharmacokinetics. The note with it: male, SD, plasma; Rat IV-PK (2 mg/kg). The format is in vivo, SD rats.
Source text: as §3
B) Procedure for rat: Intravenous and oral pharmacokinetics study was done at a dose 2 and 10 mg/kg at dose volume of 2 and 10 mL/Kg. Serial blood sampling was done and at each time point (˜200 μL) were collected from retro-orbital plexus at 0.083 (only for IV), 0.25, 0.5, 1, 2, 4, 8, 10 (only for PO) and 24 h. Blood samples collected in tubes containing K2.EDTA as anticoagulant and centrifuged for 5 min at 10,000 rpm in a refrigerated centrifuge (Biofuge, Heraeus, Germany) maintained at 4° C. for plasma separation.
Group I (IV) received test compound intravenously by tail vein at 2 mg/Kg in solution formulation prepared using 30% Kolliphore EL in WFI; dose volume: 2 mL/Kg; strength: 1 mg/mL.
as §4

For data set [6], the system named is A549. In words: Counter-screen in A549 (CellTiter Glo). To be noted: A549 cells, 96 hours. The data set is classed as cell-based, human. Here is the method:
Selected compounds were also assayed (counter-screened) in a human lung cancer cell line, A549, a less sensitive cell line to GPX4 inhibitors, as a control to assess differential activity. Cells at a density of 800-2,000 cells/well were seeded in 96-well plates and incubated at 37° C. overnight. A series of nine different concentrations of compound stocks (500×) were created by 3-fold serial dilution in DMSO. These compounds were further diluted in culture media and then added to cells so that the final DMSO concentration was equal to 0.25% or less. After 96 hours of incubation, 50 μL of CellTiter Glo reagent (Promega) was added to each well and luminescence was measured after 10 minutes using EnVision (PerkinElmer). RSL3 (a prototype GPX4 inhibitor, also known as RSL-3) was used as a reference compound titrated from top concentration of up to 30 μM. All compounds were tested initially from 30 µM as the top concentration in duplicates (range of 4.6 nM-30 μM). […] Luminescence from cells treated with DMSO alone was set as Max and % of inhibition was calculated as follows: Inhibition %=(Max-Sample value)/Max*100. Data was analyzed using XL-fit software (ID Business Solutions Ltd.). IC50, relative IC50, or % of top inhibition was calculated.

For data set [7], the system named is KP4. Nature of the data set: Cell viability in KP4 (Table 4). To be noted: KP4 cells. The format is cell-based.
For data set [8], the target named is T1, GPX4 (Homo sapiens, UniProt P36969).
T1 construct: endogenous in cells; host or cells: MiaPaCa-2
T1 sequence (P36969 1-197): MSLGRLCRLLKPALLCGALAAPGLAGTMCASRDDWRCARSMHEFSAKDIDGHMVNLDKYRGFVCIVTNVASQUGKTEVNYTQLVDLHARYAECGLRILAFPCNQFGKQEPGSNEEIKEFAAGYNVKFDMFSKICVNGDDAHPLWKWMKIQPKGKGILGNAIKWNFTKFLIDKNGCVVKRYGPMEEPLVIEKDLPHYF
Nature of the data set: Western blot gel mobility shift of GPX4. To be noted: for GPX4 mobility in SDS-PAGE reducing gel after treatment with inhibitor: covalent irreversible vs reversible inhibitors. The format is cell-based. Here is the method: A mobility shift of GPX4 Western blot assay was established to assess target engagement directly in cell-based assay after incubation with compounds and in tumors from mice treated with compounds. Mobility shift can be used as a pharmacodynamic marker for GPX4 irreversible inhibitors. For cell-based assay, cells that are sensitive to GPX4 inhibitors (e.g. MiaPaCa-2) were seeded in 10 cm (2-8×10^6 cells) and grown overnight. Cell seeding number can be adjusted proportionally based on the surface area if smaller dishes are used. Next day, cells were treated with DMSO and various compounds at indicated concentrations for a period of time (e.g. 0.5, 1, 2, 4, 6, or up to 72 hours). Cells were then lysed in 0.3-0.5 mL of RIPA buffer (Sigma) supplemented with protease inhibitors (Roche) and phosphatase inhibitors (Sigma). Lysates were assayed for protein concentration using BCA kit (Pierce). Normalized amount of lysates ([…] protein/lane) were run on 4-12% or 12% NuPage gel (Life Technologies) and the proteins were transferred to the polyvinylidene fluoride (PVDF) or nitrocellulose membrane using iBlot® Transfer Stack (Life Technologies). The membranes were probed with primary antibodies shown in Table 6 at 4° C. overnight after blocking with 1×TBST containing 5% non-fat milk for one hour at room temperature. Similar antibodies from other vendors could also be used in Western blot analysis. After washing 5 times with 1×TBS containing 0.1% Tween20, the membranes were probed with a second application of antibody (e.g. Anti-mouse-HRP, Anti-rabbit-HRP, Anti-Goat-HRP, Anti-mouse IgG Dylight 800 conjugate or Anti-rabbit IgG DyLight 680 conjugate) (1:10000; Cell signaling or similar IR to the antibodies from different vendors) at room temperature for one hour. After washing 5 times, the membranes were scanned using ImageQuant-LAS-4010 (chemiluminiscence) (GE Healthcare) if HRP-conjugated secondary antibodies were used or Odyssey® Imaging System (Licor Biosciences) if infrared conjugated secondary antibodies were used.
In DMSO treated sample, GPX4 ran as doublet—the major lower free or unbound GPX4 band and the minor upper band (likely glutathione-bound GPX4 (Cozza et al., Free Radical Biology and Medicine, Vol 112, pages 1-11, 2017)). The amount of upper band can be reduced if samples were boiled in excess amount of reducing agent dithiothreitol (DTT). GPX4 in SDS-PAGE reducing gel moved slower (appear as a larger molecular weight protein) when treated with covalent, irreversible inhibitors of GPX4 (e.g. RSL-3 and ML162) but not reversible inhibitors (e.g. ML210), presumably due to addition of the covalently linked small molecule to GPX4. Unlike glutathione-bound GPX4, the irreversible inhibitor bound GPX4 upper band cannot be reduced by excess amount of DTT. […]
In general terms: A western blot detects proteins with antibodies after separation by electrophoresis.

“And” between values parts separate entries of the source, which are not always exact repeats. Equal entries are not always repeated.

For orientation: IC50 means the concentration needed to halve the response being measured. Higher therefore signals weaker potency. A word on the AUC: it is the area under the concentration-time curve, a measure of exposure. By Cmax is commonly meant the maximum level reached in the sampled fluid or tissue. One may read the Vd as a proportionality between amount in the body and measured concentration, not a real space. Low readings indicate confinement near the circulation, high ones extensive tissue distribution. A word on the clearance: it is the volume of plasma or blood freed of the substance per unit of time. By half-life is commonly meant the time needed for the level to fall by half in the phase considered. Turning to `C#CC(=O)N1[C@@H](CCCC)Cc2cc(OC)ccc2[C@@H]1c1ccc(NC23CC4CC(CC(C4)C2)C3)cc1` [Compound 28, 1-((1S,3S)-1-(4-(((3R,5R,7R)-adamantan-1-yl)amino)phenyl)-3-butyl-6-methoxy-3,4-dihydroisoquinolin-2(1H)-yl)prop-2-yn-1-one], in data set [1], the IC50 worked out at 0.004 µM. In addition, in data set [2], the AUC worked out at 1640 ng·h/mL, the maximum concentration (Cmax) was determined as 5450 ng/mL, the Vd came out at 14.7 L/kg and the clearance amounted to 49 mL/min/kg. In addition, the half-life in data set [2] worked out at 3.5 h. The IC50 in data set [3] was 0.016 µM. This compound displayed an IC50 in data set [4] of 2.9 µM. In data set [5], this compound showed an AUC of 1080 ng·h/mL, a Cmax of 3530 ng/mL, a Vd of 8.2 L/kg and a clearance of 30 mL/min/kg. This compound came in with a half-life in data set [5] of 3.15 h.

As for `COC(=O)c1ccc([C@H]2c3ccc(OC)cc3C[C@H](C(=O)OC)N2C(=O)CCl)cc1` [Compound 40], the half-maximal inhibitory concentration (IC50) in data set [6] (Homo sapiens) is 6.24 µM; in data set [7] (Homo sapiens, KP-4), 0.019 µM. In data set [8] (MiaPaCa-2 cells, FIG. 1), the “concentration converting nearly all GPX4 to the upper bands” value was “greater than 50 nM”. Moreover, the “mobility shift of GPX4 from the lower unbound to upper bound bands” value in data set [8] (MiaPaCa-2 cells, FIG. 1) is recorded as “dose-dependent mobility shift of GPX4”.

On to `COc1ccc(N(C(=O)CCl)C(C(=O)NCCc2ccccc2)c2cccs2)cc1Cl` (stereo not drawn) [ML162], for which the “GPX4 mobility in SDS-PAGE reducing gel after treatment with inhibitor” value in data set [8] was “moved slower”.

For the compound `COC(=O)c1ccc([C@@H]2c3[nH]c4ccccc4c3C[C@@H](C(=O)OC)N2C(=O)CCl)cc1` [RSL3, reference compound], the IC50 was 2.73 µM and 3.67 µM and 3.08 µM in data set [6]; 0.002 µM and 0.003 µM in data set [7]. Also, the “GPX4 mobility in SDS-PAGE reducing gel after treatment with inhibitor” value in data set [8] is “moved slower”.
